From patent US20140206682A1, “COMPOUNDS AND COMPOSITIONS AS PDGFR KINASE INHIBITORS” (NOVARTIS PHARMACEUTICALS UK LIMITED, priority 2011, published 2014)

Test system: PDGFR
Assay: Rat A10 cell proliferation assay
Assay type: cell-based
Settings: Rat A10 cells, recombinant rat PDGF-BB, CellTiter-Glo after 68 hours
In short: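 Rat A10 cells in DMEM with 1% FBS and 10 ng/mL rat PDGF-BB, preincubated 4 h at 37 °C, then exposed to 3-fold serially diluted compound for 68 h. Viability/proliferation read as CellTiter-Glo luminescence.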

Row | SMILES | IC50 (Table 2) [nM] | IC50 (Table 1) [nM]
1 | O=C(N[C@H]1c2ccccc2C[C@H]1O)c1ccc(F)c(NC(=O)c2cnc3cc(N4CCOCC4)ccn23)c1 [F71, N-(2-fluoro-5-{[(1S,2R)-2-hydroxy-2,3-dihydro-1H-inden-1-yl]carbamoyl}phenyl)-7-(morpholin-4-yl)imidazo[1,2-a]pyridine-3-carboxamide] | 2180 | –
2 | Cc1ccn2c(C(=O)Nc3cc(C(=O)N[C@@H](CO)[C@@H](O)c4ccccc4)ccc3F)cnc2c1 [F127, N-(5-{[(1S,2S)-1,3-dihydroxy-1-phenylpropan-2-yl]carbamoyl}-2-fluorophenyl)-7-methylimidazo[1,2-a]pyridine-3-carboxamide] | – | 86
3 | Cc1ccc2ncc(C(=O)Nc3cc(C(=O)N[C@@H]4c5ccc(F)cc5C[C@@H]4O)ccc3F)n2c1 [F28, N-(2-fluoro-5-{[(1R,2S)-5-fluoro-2-hydroxy-2,3-dihydro-1H-inden-1-yl]carbamoyl}phenyl)-6-methylimidazo[1,2-a]pyridine-3-carboxamide] | – | 129
4 | Cn1nccc1-c1ccn2c(C(=O)Nc3cc(C(=O)N[C@H](CO)[C@H](O)c4ccccc4)ccc3F)cnc2c1 [F130, N-(5-{[(1R,2R)-1,3-dihydroxy-1-phenylpropan-2-yl]carbamoyl}-2-fluorophenyl)-7-(1-methyl-1H-pyrazol-5-yl)imidazo[1,2-a]pyridine-3-carboxamide] | – | 104
5 | O=C(N[C@@H]1CCCC(F)(F)[C@H]1O)c1ccc(F)c(NC(=O)c2cnc3ccccn23)c1 [F99, N-(5-{[(1R,2S)-3,3-difluoro-2-hydroxycyclohexyl]carbamoyl}-2-fluorophenyl)imidazo[1,2-a]pyridine-3-carboxamide] | 325 | –
6 | COc1ccc2c(c1)[C@@H](NC(=O)c1ccc(F)c(NC(=O)c3cnc4ccc(C)cn34)c1)[C@@H](O)C2 [F111, N-(2-fluoro-5-{[(1R,2S)-2-hydroxy-6-methoxy-2,3-dihydro-1H-inden-1-yl]carbamoyl}phenyl)-6-methylimidazo[1,2-a]pyridine-3-carboxamide] | – | 195
7 | O=C(NCC1(O)CCCCC1)c1cccc(NC(=O)c2cnc3ccccn23)c1 [F64] | 1100 | –
8 | CN(C)CCCOc1ccc(-c2ccn3c(C(=O)Nc4cc(C(=O)N[C@@H]5Cc6ccccc6[C@@H]5O)ccc4F)cnc3c2)cn1 [F39, 7-{6-[3-(dimethylamino)propoxy]pyridin-3-yl}-N-(2-fluoro-5-{[(1S,2R)-1-hydroxy-2,3-dihydro-1H-inden-2-yl]carbamoyl}phenyl)imidazo[1,2-a]pyridine-3-carboxamide] | 252 | –
9 | CCC[C@@H](CO)NC(=O)c1ccc(F)c(NC(=O)c2cnc3ccccn23)c1 [F110, N-(2-fluoro-5-{[(2S)-1-hydroxypentan-2-yl]carbamoyl}phenyl)imidazo[1,2-a]pyridine-3-carboxamide] | – | 115
